Source: US20160074466A1, “ANGIOTENSINS FOR TREATMENT OF FIBROSIS” (UNIVERSITY OF SOUTHERN CALIFORNIA, priority 2011, published 2016)

Assays:
NASH mice [1] = assay: Liver weight, NAS and inflammatory cell infiltration in NASH mice (summary statements); type: in vivo
From the text: (§1) In this example, NASH was induced in 48 male mice by a single subcutaneous injection of streptozotocin (STZ, Sigma-Aldrich, USA) solution 2 days after birth and feeding with high fat diet (HFD, 57 kcal % fat, cat#HFD32, CLEA Japan, Japan) after 4 weeks of age. The mice were randomized into 6 groups of 8 mice at 7 weeks of age according to Table 1 below. Eight male littermates, fed with normal diet without STZ treatment, were used for the Normal group.
(§2) Group 1 (normal) consisted of eight normal mice fed with a normal diet ad libitum without any treatment. Group 2 (vehicle) consisted of eight NASH mice that were subcutaneously administered vehicle at a volume of 5 mL/kg once daily from 7 to 10 weeks of age. Group 3 (TXA127-30 μg) consisted of eight NASH mice that were subcutaneously administered vehicle supplemented with TXA127 at a dose of 30 μg/5 mL/kg once daily from 7 to 10 weeks of age. Group 4 (TXA127-100 μg) consisted of eight NASH mice that were subcutaneously administered vehicle supplemented with TXA127 at a dose of 100 μg/5 mL/kg once daily from 7 to 10 weeks of age. Group 5 (TXA127-300 μg) consisted of eight NASH mice that were subcutaneously administered vehicle supplemented with TXA127 at a dose of 300 μg/5 mL/kg once daily from 7 to 10 weeks of age. Group 6 (TXA127-1,000 μg) consisted of eight NASH mice that were subcutaneously administered vehicle supplemented with TXA127 at a dose of 1,000 μg/5 mL/kg once daily from 7 to 10 weeks of age. Group 7 consisted of eight NASH mice that were orally administered pure water supplemented with Telmisartan at a dose of 15 mg/10 mL/kg once daily from 8 to 10 weeks of age.
Vehicle (saline) and TXA127 were administered via subcutaneous administration to the mice in a volume of 5 mL/kg body weight. Telmisartan was administered by oral route to the mice in a volume of 10 mL/kg body weight. TXA127 was dissolved in saline, and Telmisartan (MICARDIS®) was purchased from Boehringer Ingelheim GmbH and was dissolved in pure water. TXA127 was administered once daily at the doses of 30, 100, 300 or 1000 μg/kg body weight. […]

Collagen Type 1 mRNA = assay: Quantitative RT-PCR of liver, Collagen Type 1 mRNA; type: in vivo, mice
Description: (§3) The animals, groups, treatment conditions and time points are the same as for Example 3 above. Livers were harvested from the animals in Example 3 and subjected to the following analysis.
(§4) Total RNA was extracted from liver samples using RNAiso (Takara Bio, Japan) according to the manufacturer's instructions. One μg of RNA was reverse-transcribed using a reaction mixture containing 4.5 mM MgCl2 (Roche, Switzerland), 40 U RNase inhibitor (Toyobo, Japan), 0.5 mM dNTP (Promega, USA), 6.28 μM random hexamer (Promega), 5× first strand buffer (Promega), 6.6 mM dithiothreitol (Invitrogen, USA) and MMLV-RT (Invitrogen) in a final volume of 20 μL. The reaction was carried out for 1 hour at 37° C., followed by 5 minutes at 99° C. Real-time PCR was performed using real-time PCR DICE and SYBR premix Taq (Takara Bio). To calculate the relative mRNA expression level, the expression of each gene was normalized to that of reference gene 36B4 (gene symbol: Rp1p0). Statistical analyses were performed using Bonferroni Multiple Comparison Test on Prism Software 4. P values <0.05 were considered statistically significant. The expression level of Collagen Type I, collagen type 3, α-SMA, TGF-β, CCR2, and TIMP-1 mRNA were assessed.

Collagen Type 3 mRNA = assay: Quantitative RT-PCR of liver, Collagen Type 3 mRNA; type: in vivo, mice
Description: as §3, §4

[2] = Plasma ALT, AST and ALP levels in STZ/high fat diet NASH mice; type: in vivo
From the text: as §1, §2
(§5) Vehicle (saline) and TXA127 were administered via subcutaneous administration to the mice in a volume of 5 mL/kg body weight. Telmisartan was administered by oral route to the mice in a volume of 10 mL/kg body weight. TXA127 was dissolved in saline, and Telmisartan (MICARDIS®) was purchased from Boehringer Ingelheim GmbH and was dissolved in pure water. TXA127 was administered once daily at the doses of 30, 100, 300 or 1000 μg/kg body weight. Telmisartan was administered once daily at the dose of 15 mg/kg body weight.
(§6) Non-fasting whole blood glucose levels were measured in whole blood samples using G Checker (Sanko Junyaku, Japan). For plasma biochemistry, blood was collected in polypropylene tubes with anticoagulant (Novo-Heparin, Mochida Pharmaceutical, Japan) and centrifuged at 1,000×g for 15 minutes at 4° C. The supernatant was collected and stored at −80° C. until use. The plasma levels of ALT, AST, and ALP were measured by FUJI DRI-CHEM 7000 (Fuji Film, Japan).

α-SMA mRNA = assay: Quantitative RT-PCR of liver, α-SMA mRNA; type: in vivo, mice
Description: as §3, §4

TIMP-1 mRNA = assay: Quantitative RT-PCR of liver, TIMP-1 mRNA; type: in vivo, mice
Description: as §3, §4

NASH mice [3] = assay: Sirius red staining of liver sections, fibrosis area, in NASH mice; type: in vivo
From the text: as §1, §2, §5
For quantitative analysis of fibrosis areas, bright field images of
Sirius red-stained sections were captured using a digital camera (DFC280, Leica, Germany) around central veins at 200-fold magnification, and the positive areas in 5 fields/section were quantified using ImageJ software (National Institute of Health, USA).

NASH mice [4] = assay: Liver hydroxyproline content in NASH mice; type: in vivo; settings: normalized by total protein
From the text: as §1, §2, §5
To quantify liver hydroxyproline content, frozen livers (40-60 mg) were minced and defatted in acetone for 30 minutes at room temperature. After centrifugation, the pellets were air-dried and dissolved in 400 μL of 2N NaOH at 65° C. The liver lysates were autoclaved at 121° C. for 20 minutes. The samples were then acid-hydrolyzed with 400 μL of 6N HCl at 121° C. for 20 minutes, and neutralized with 400 μL of 10 mg/mL activated carbon in 4N NaOH. The neutralized samples were buffered with 2.2 M acetic acid/0.48 M citric acid buffer and centrifuged to obtain the supernatant. In order to construct a standard curve of hydroxyproline, serial dilutions of trans-4-hydroxy-L-proline standard (Sigma, USA) were prepared starting at 16 μg/mL. Five hundred μL of the supernatant and standard were added to 500 μL chloramine T in 10% n-propanol/acetate-citrate buffer and incubated for 25 minutes at room temperature. […] After samples were cooled on ice and centrifuged to collect the supernatant, the optical density of each supernatant and standard was measured at 560 nm and the concentration of liver hydroxyproline was calculated form the hydroxyproline standard curve. Protein concentrations of each supernatant were determined using a BCA protein assay kit (Thermo Scientific, USA). […]

[5] = Non-fasting whole blood glucose in STZ/high fat diet NASH mice; type: in vivo
From the text: as §1, §2, §5, §6

TGF-β mRNA = assay: Quantitative RT-PCR of liver, TGF-β mRNA; type: in vivo, mice
Description: as §3, §4

CCR2 mRNA = assay: Quantitative RT-PCR of liver, CCR2 mRNA; type: in vivo, mice
Description: as §3, §4

[6] = 15 mg/kg oral QD, compared with the Vehicle group
[7] = relative to 36B4, Normal = 1.00, 15 mg/kg oral QD
[8] = 15 mg/kg oral QD, 8-10 wks of age
[9] = relative to 36B4, Normal = 1.00, 30 μg/kg SQ QD
[10] = relative to 36B4, Normal = 1.00, 100 μg/kg SQ QD
[11] = relative to 36B4, Normal = 1.00, 300 μg/kg SQ QD
[12] = relative to 36B4, Normal = 1.00, 1000 μg/kg SQ QD
[13] = 30 μg/kg SQ QD, 7-10 wks of age
[14] = 100 μg/kg SQ QD, 7-10 wks of age
[15] = 300 μg/kg SQ QD, 7-10 wks of age
[16] = 1000 μg/kg SQ QD, 7-10 wks of age

With `CCCc1nc2c(C)cc(-c3nc4ccccc4n3C)cc2n1Cc1ccc(-c2ccccc2C(=O)O)cc1` [Telmisartan, reference compound] the NAS (NASH mice [1]; [6]) was “significantly decreased”, the liver weight (NASH mice [1]; [6]) was “significantly decreased” and the “Collagen Type 1 mRNA expression levels” value (Collagen Type 1 mRNA; [7]) was 3.14±0.59. The “Collagen Type 3 mRNA expression levels” value (Collagen Type 3 mRNA; [7]) was 2.09±0.50, the “plasma ALP levels” value [2, 8] was 605±130 U/L and the “plasma ALT levels” value [2, 8] was 41±10 U/L. For the same compound, the “plasma AST levels” value [2, 8] was 232±141 U/L, the “α-SMA mRNA expression levels” value (α-SMA mRNA; [7]) was 2.07±0.87 and the “TIMP-1 mRNA expression levels” value (TIMP-1 mRNA; [7]) was 4.22±1.52. The “percentage of fibrosis area (Sirius red-positive area)” value (shortened to “percentage of fibrosis area”) (NASH mice [3]; [8]) was 0.44±0.12%, the liver hydroxyproline content (NASH mice [4]; [8]) was 1.46 ± 0.69 µg/mg and the “non-fasting blood glucose levels in whole blood” value (shortened to “non-fasting blood glucose levels”) ([5]; 15 mg/kg oral QD, 8-10 wks of age, detection limit 900 mg/dL) was 900 ± 0 mg/dL. For the same compound, the “TGF-β mRNA expression levels” value (TGF-β mRNA; [7]) was 1.58±0.23 and the “CCR2 mRNA expression levels” value (CCR2 mRNA; [7]) was 1.94±0.37.

For “TXA127: test substance dissolved in saline, given subcutaneously; not defined in the text, apparently the angiotensin-(1-7) peptide (DRVYIHP; Angiotensin 1-7; UniProt P01019 25-31, looked up)”, the inflammatory cell infiltration (NASH mice [1]; all doses (30, 100, 300, 1000 μg/kg SQ QD)) was “decreased inflammatory cell infiltration”, the “Collagen Type 1 mRNA expression levels” value (Collagen Type 1 mRNA; [9]) was 4.48±0.91 and the “Collagen Type 1 mRNA expression levels” value (Collagen Type 1 mRNA; [10]) was 3.37±1.58. The “Collagen Type 1 mRNA expression levels” value (Collagen Type 1 mRNA; [11]) was 3.06±1.12, the “Collagen Type 1 mRNA expression levels” value (Collagen Type 1 mRNA; [12]) was 2.77±0.77 and the “Collagen Type 3 mRNA expression levels” value (Collagen Type 3 mRNA; [9]) was 3.23±0.54. For the same compound, the “Collagen Type 3 mRNA expression levels” value (Collagen Type 3 mRNA; [10]) was 2.82±1.50, the “Collagen Type 3 mRNA expression levels” value (Collagen Type 3 mRNA; [11]) was 2.81±0.89 and the “Collagen Type 3 mRNA expression levels” value (Collagen Type 3 mRNA; [12]) was 2.24±0.68. For the same compound, the “plasma ALP levels” value [2, 13] was 428±61 U/L, the “plasma ALT levels” value [2, 13] was 46±15 U/L and the “plasma AST levels” value [2, 13] was 160±94 U/L. For the same compound, the “plasma ALP levels” value [2, 14] was 358±75 U/L, the “plasma ALT levels” value [2, 14] was 89±56 U/L and the “plasma AST levels” value [2, 14] was 352±174 U/L. The “plasma ALP levels” value [2, 15] was 472±100 U/L, the “plasma ALT levels” value [2, 15] was 43±17 U/L and the “plasma AST levels” value [2, 15] was 149±50 U/L. The “plasma ALP levels” value [2, 16] was 397±96 U/L, the “plasma ALT levels” value [2, 16] was 41±10 U/L and the “plasma AST levels” value [2, 16] was 142±32 U/L. For the same compound, the “α-SMA mRNA expression levels” value (α-SMA mRNA; [9]) was 2.88±1.08, the “α-SMA mRNA expression levels” value (α-SMA mRNA; [10]) was 2.65±2.46 and the “α-SMA mRNA expression levels” value (α-SMA mRNA; [11]) was 2.49±0.98. For the same compound, the “α-SMA mRNA expression levels” value (α-SMA mRNA; [12]) was 1.92±0.67, the “TIMP-1 mRNA expression levels” value (TIMP-1 mRNA; [9]) was 6.74±1.93 and the “TIMP-1 mRNA expression levels” value (TIMP-1 mRNA; [10]) was 9.80±8.93. The “TIMP-1 mRNA expression levels” value (TIMP-1 mRNA; [11]) was 7.54±3.05, the “TIMP-1 mRNA expression levels” value (TIMP-1 mRNA; [12]) was 8.54±6.41 and the “percentage of fibrosis area” value (NASH mice [3]; [13]) was 0.88±0.33%. For the same compound, the “percentage of fibrosis area” value (NASH mice [3]; [14]) was 0.55±0.29%, the “percentage of fibrosis area” value (NASH mice [3]; [15]) was 0.54±0.18% and the “percentage of fibrosis area” value (NASH mice [3]; [16]) was 0.51±0.09%. It also gave a liver hydroxyproline content (NASH mice [4]; [13]) of 1.22 ± 0.29 µg/mg, a liver hydroxyproline content (NASH mice [4]; [14]) of 0.88 ± 0.17 µg/mg and a liver hydroxyproline content (NASH mice [4]; [15]) of 1.24 ± 0.51 µg/mg. The liver hydroxyproline content (NASH mice [4]; [16]) was 1.34 ± 0.69 µg/mg, the “non-fasting blood glucose levels” value [5, 13] was 675 ± 103 mg/dL and the “non-fasting blood glucose levels” value [5, 14] was 590 ± 131 mg/dL. The “non-fasting blood glucose levels” value [5, 15] was 639 ± 76 mg/dL, the “non-fasting blood glucose levels” value [5, 16] was 632 ± 92 mg/dL and the “TGF-β mRNA expression levels” value (TGF-β mRNA; [9]) was 2.35±0.44. The “TGF-β mRNA expression levels” value (TGF-β mRNA; [10]) was 1.93±0.44, the “TGF-β mRNA expression levels” value (TGF-β mRNA; [11]) was 1.69±0.49 and the “TGF-β mRNA expression levels” value (TGF-β mRNA; [12]) was 1.70±0.35. For the same compound, the “CCR2 mRNA expression levels” value (CCR2 mRNA; [9]) was 2.60±0.60, the “CCR2 mRNA expression levels” value (CCR2 mRNA; [10]) was 3.26±2.01 and the “CCR2 mRNA expression levels” value (CCR2 mRNA; [11]) was 2.82±0.88. The “CCR2 mRNA expression levels” value (CCR2 mRNA; [12]) was 3.10±1.55.
